What was measured:
tps1Δ cells = assay: Growth rescue of tps1Δ strain on glucose (growth curves, 2% galactose medium); format: cell-based, S. cerevisiae; details: 100 μM compound, 2.5 mM glucose
Method in brief: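 Growth at 30 °C was tracked by OD595 readings every 30 min, with at least triplicate technical wells. Cells came from 2% galactose synthetic precultures, were washed and set to OD 0.1, and received compound 10 min ahead of the glucose addition.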

[1] = test system: A549 lung adenocarcinoma cells; assay: A549 cell proliferation / growth inhibition; format: cell-based, human; details: for Selected from primary screen for growth inhibition of A549 cells at 50 μM: 50 μM compound, 1 mM glucose; for Selected for having an IC50 ratio (10 mM glucose: 1 mM glucose) of A549 growth higher than WBC-A: IC50 on 10 mM vs 1 mM glucose, compared with WBC-A
Method in brief: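 A549 growth screened in RPMI with 1 mM glucose, compounds at 50 μM; cell number from counts of Hoechst-stained nuclei after 3 days. Growth curves also followed by IncuCyte phase-contrast confluency over 3–5 days (1000–1500 cells/well), DMSO ≤0.1%, ≥4 technical repeats.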

| SMILES | Rescue of the tps1Δ strain on 2.5 mM glucose at 100 μM (tps1Δ cells) | Selected from primary screen for growth inhibition of A549 cells at 50 μM [1] | Selected for having an IC50 ratio (10 mM glucose: 1 mM glucose) of A549 growth higher than WBC-A [1] |
| --- | --- | --- | --- |
| c1csc(-c2csc3nc(CN4CCOCC4)nc(Sc4ccncc4)c23)c1 [40C] | No | Yes | Lower IC50 ratio |
| CCc1nc(Sc2nnc(CO)n2C)c2ccsc2n1 [41A] | No | Yes | Lower IC50 ratio |
| Cc1nc(SCC(=O)NCC(=O)Nc2cccc(C)c2C)c2c(-c3cccs3)csc2n1 [41B] | No | No |  |
| Cc1nc(SCCN2CCOCC2)c2cc(-c3ccccc3)sc2n1 [41C] | No | Yes | Lower IC50 ratio |
| COc1ccc(-c2csc3nc(C)nc(Sc4nccn4C)c23)cc1OC [42A] | No | Yes | Lower IC50 ratio |
| Cc1nc(NC2CCC(O)CC2)c2c(-c3cccs3)csc2n1 (centres unmarked) [42B] | No | No |  |
| CCc1nc(SCC(=O)OC)c2ccsc2n1 [42C] | No | No | Lower IC50 ratio |
| Cc1nc(SCC(=O)N2CCC(C)Sc3ccccc32)c2c(-c3cccs3)csc2n1 (centres unmarked) [43B] | No | No |  |
| CCn1c(Sc2nc(C)nc3scc(-c4cccs4)c23)nnc1-c1ccncc1 [43C] | Yes | Yes |  |
| Cc1nc(SCCN2CCOCC2)c2c(-c3cccs3)csc2n1 [44A] | Yes | Yes | Lower IC50 ratio |
| Cc1nc(SCC(=O)N(CC(C)C)CC(C)C)c2c(-c3cccs3)csc2n1 [44B] | No | Yes | Lower IC50 ratio |
| Cc1nc(Sc2nnnn2C2CC2)c2c(-c3cccs3)csc2n1 [44C] | No | Yes | Lower IC50 ratio |
| CSc1nc(C)nc2scc(-c3cccs3)c12 [45A] | No | No |  |
| COc1cccc(NC(=O)CSc2nc(C)nc3scc(-c4cccs4)c23)c1 [45B] | No | Yes | Higher IC50 ratio, but false-positive |
| [O-][S+](CCSc1ncnc2scc(-c3ccc(F)cc3)c12)c1ccccc1 (centres unmarked) [45C] | No | Yes | Lower IC50 ratio |
| c1ccn2c(Sc3ncnc4sccc34)nnc2c1 [46A] | No | No |  |
| CCCN(CC(=O)N(C)C)c1nc(C)nc2scc(-c3cccs3)c12 [46B] | No | Yes | Lower IC50 ratio |
| CCNc1nnc(Sc2nc(C)nc3scc(-c4cccs4)c23)s1 [46C] | No | No |  |
| Cc1nc(SCCO)c2c(-c3cccs3)csc2n1 [47A] | Yes | Yes | Lower IC50 ratio |
| Cc1nc(N2CCC3(CC2)OCCO3)c2c(-c3cccs3)csc2n1 [47B] | No | Yes | Lower IC50 ratio |
| Cc1nc(SCC(=O)N2CCOCC2)c2c(C)c(C)sc2n1 [47C] | No | No |  |
| Cn1nnnc1Sc1ncnc2scc(-c3ccc(Cl)cc3)c12 [48A] | No | Yes | Lower IC50 ratio |
| Cc1nc(NC2CCN(CC(N)=O)CC2)c2c(-c3cccs3)csc2n1 [48B] | No | Yes | Lower IC50 ratio |

| SMILES | Rescue of the tps1Δ strain on 2.5 mM glucose at 100 μM (tps1Δ cells) | Selected from primary screen for growth inhibition of A549 cells at 50 μM [1] | Selected for having an IC50 ratio (10 mM glucose: 1 mM glucose) of A549 growth higher than WBC-A [1] |
| --- | --- | --- | --- |
| Cc1nc2scc(-c3cccs3)c2c(=O)[nH]1 [48C] | No | No |  |
| c1ccc(-c2csc3ncnc(Sc4nnc5ccccn45)c23)cc1 [49A] | No | Yes | Lower IC50 ratio |
| Cc1nc(SCC(=O)NC(=O)NCCC(C)C)c2c(-c3cccs3)csc2n1 [49B] | No | Yes | Lower IC50 ratio |
| Cc1nc(SCC(N)=O)c2c3c(sc2n1)CCC3 [49C] | No | No |  |
| Cc1ccc(-c2csc3ncnc(Sc4ncccn4)c23)cc1 [50A] | No | No |  |
| CCCc1nnc(Sc2nc(C)nc3scc(-c4cccs4)c23)[nH]1 [50C] | Yes | Yes | Lower IC50 ratio |
| CCn1c(Sc2nc(C)nc3scc(-c4cccs4)c23)n[nH]c1=O [51A] | No | Yes | Lower IC50 ratio |
| Cc1nc(Sc2nnc3sc4ccccc4n23)c2c3c(sc2n1)CCCC3 [51C] | No | No |  |
| CCC(c1nnc(Sc2nc(C)nc3scc(-c4cccs4)c23)n1Cc1ccccc1)N(C)C (centres unmarked) [52A] | No | Yes | Lower IC50 ratio |
| Cc1nc(SCC(=O)N2CCOCC2)c2c3c(sc2n1)CCCC3 [52C] | No | No |  |
| COC(=O)CSc1nc(C)nc2scc(-c3cccs3)c12 [53A] | Yes | No |  |
| OCCCSc1ncnc2scc(-c3ccc(F)cc3)c12 [53C] | No | No |  |
| Cn1nnnc1Sc1nc(CN2CCOCC2)nc2scc(-c3cccs3)c12 [54A] | No | Yes | Lower IC50 ratio |
| Cc1nc(Sc2nnc(C(F)(F)F)n2C)c2c(-c3cccs3)csc2n1 [54C] | Yes | Yes | Lower IC50 ratio |
| c1csc(-c2csc3nc(CN4CCOCC4)nc(Sc4nnc[nH]4)c23)c1 [55A] | Yes | No |  |
| Cc1nc(Sc2nnnn2C2CC2)c2c(-c3ccccc3)csc2n1 [56A] | No | Yes | Lower IC50 ratio |
| OCCSc1ncnc2scc(-c3ccc(F)cc3)c12 [56C] | No | No |  |
| Cc1ccc(-c2csc3ncnc(Sc4nnnn4C)c23)cc1 [57A] | No | Yes | Lower IC50 ratio |
| Cc1nc(SCCO)c2c(C)c(C)sc2n1 [57C] | No | No |  |
| Cc1sc2ncnc(Sc3nnc4ccccn34)c2c1C [58A] | No | No |  |
| Cc1nc(Sc2nnc(C3CC3)n2C2CC2)c2c(-c3cccs3)csc2n1 [58C] | No | No |  |
| Cc1nc(Sc2nnc[nH]2)c2cc(-c3ccccc3)sc2n1 [59A] | No | No |  |
| CCOC(=O)c1sc2nc(C)nc(SCC(N)=O)c2c1C [59C] | No | No |  |

Source: patent US20240252508A1, “Novel glucose uptake inhibitors for use in the treatment of cancer” (NOVELYEAST BV, priority 2021, published 2024)
